In patent US20240317735A1, “HYDROISOQUINOLINE OR HYDRONAPHTHYRIDINE COMPOUNDS FOR THE TREATMENT OF AUTOIMMUNE DISEASE” (Hoffmann-La Roche Inc., priority 2020, published 2024):

What was measured:
TLR9 = biological target: T1, TLR9 (Homo sapiens, UniProt Q9NR96); experiment: HEK293-Blue-hTLR-9 cells assay (SEAP reporter, ODN2006 stimulation); assay type: cell-based; design: host or cells: HEK293 (HEK-Blue hTLR9); details: HEK293-Blue-hTLR9 cells, ODN2006, 20 hrs; read-out: HEK/hTLR9 IC50
T1 sequence (Q9NR96 26-1032): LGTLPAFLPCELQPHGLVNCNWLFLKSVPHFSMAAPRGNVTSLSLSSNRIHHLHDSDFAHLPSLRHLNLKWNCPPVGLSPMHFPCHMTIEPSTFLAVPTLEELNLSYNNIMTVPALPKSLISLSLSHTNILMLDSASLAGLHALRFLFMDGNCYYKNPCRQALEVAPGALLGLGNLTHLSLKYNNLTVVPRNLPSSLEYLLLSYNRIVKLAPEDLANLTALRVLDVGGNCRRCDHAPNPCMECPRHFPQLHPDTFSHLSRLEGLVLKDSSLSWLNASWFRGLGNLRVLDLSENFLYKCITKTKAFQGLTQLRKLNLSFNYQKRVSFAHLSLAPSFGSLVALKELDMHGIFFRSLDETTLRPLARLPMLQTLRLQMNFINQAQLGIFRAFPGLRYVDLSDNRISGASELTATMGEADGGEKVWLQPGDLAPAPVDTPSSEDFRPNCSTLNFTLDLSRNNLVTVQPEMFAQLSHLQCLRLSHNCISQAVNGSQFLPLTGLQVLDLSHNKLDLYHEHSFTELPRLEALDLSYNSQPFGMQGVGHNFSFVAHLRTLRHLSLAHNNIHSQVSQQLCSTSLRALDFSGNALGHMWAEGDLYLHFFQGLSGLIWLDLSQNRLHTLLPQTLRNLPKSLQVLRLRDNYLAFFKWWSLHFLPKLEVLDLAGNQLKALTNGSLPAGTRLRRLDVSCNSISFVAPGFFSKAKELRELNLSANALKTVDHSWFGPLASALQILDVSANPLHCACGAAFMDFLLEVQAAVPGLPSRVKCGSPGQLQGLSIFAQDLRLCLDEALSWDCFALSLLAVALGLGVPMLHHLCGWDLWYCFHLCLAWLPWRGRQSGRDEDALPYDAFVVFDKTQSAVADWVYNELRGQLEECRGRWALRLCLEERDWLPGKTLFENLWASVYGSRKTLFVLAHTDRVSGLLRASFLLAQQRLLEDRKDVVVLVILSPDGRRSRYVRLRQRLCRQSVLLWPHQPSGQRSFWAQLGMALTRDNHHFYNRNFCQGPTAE
Method: The following tests were carried out in order to determine the activity of the compounds of formula (I) and (Ia) in HEK293-Blue-hTLR-7/8/9 cells assay.
A stable HEK293-Blue-hTLR-9 cell line was purchased from InvivoGen (Cat. #: hkb-htlr9, San Diego, California, USA). These cells were originally designed for studying the stimulation of human TLR9 by monitoring the activation of NF-κB. A SEAP (secreted embryonic alkaline phosphatase) reporter gene was placed under the control of the IFN-β minimal promoter fused to five NF-κB and AP-1-binding sites. The SEAP was induced by activating NF-κB and AP-1 via stimulating HEK-Blue hTLR9 cells with TLR9 ligands. Therefore the reporter expression was declined by TLR9 antagonist under the stimulation of a ligand, such as ODN2006 (Cat. #: tlrl-2006-1, Invivogen, San Diego, California, USA), for incubation of 20 hrs. The cell culture supernatant SEAP reporter activity was determined using QUANTI-Blue™ kit (Cat. #: rep-qb1, Invivogen, San Diego, California, USA) at a wavelength of 640 nm, a detection medium that turns purple or blue in the presence of alkaline phosphatase.
HEK293-Blue-hTLR9 cells were incubated at a density of 250,000-450,000 cells/mL in a volume of 170 μL in a 96-well plate in Dulbecco's Modified Eagle's medium (DMEM) containing 4.5 g/L glucose, 50 U/mL penicillin, […], […], 2 mM L-glutamine, 10% (v/v) heat-inactivated fetal bovine serum with addition of 20 μL test compound in a serial dilution in the presence of final DMSO at 1% and 10 μL of 20 uM ODN2006 in above DMEM, perform incubation under 37° C. in a CO2 incubator for 20 hrs. Then 20 μL of the supernatant from each well was incubated with 180 μL Quanti-blue substrate solution at 37° C. for 2 h and the absorbance was read at 620˜655 nm using a spectrophotometer.
The signaling pathway that TLR9 activation leads to downstream NF-κB activation has been widely accepted, and therefore similar reporter assay was modified for evaluating TLR9 antagonist.

[1] = Human microsome stability assay; assay type: in vitro ADME; details: 1 μM test compound, 0.5 mg/mL liver microsomal protein, 37° C., pH 7.4
Method: The human microsomal stability assay is used for early assessment of metabolic stability of a test compound in human liver microsomes.
Human liver microsomes (Cat. NO.: 452117, Corning, USA; Cat. NO.: H2610, Xenotech, USA) were preincubated with test compound for 10 minutes at 37° C. in 100 mM potassium phosphate buffer, pH 7.4. The reactions were initiated by adding NADPH regenerating system. The final incubation mixtures contained 1 μM test compound, 0.5 mg/mL liver microsomal protein, 1 mM MgCl2, 1 mM NADP, 1 unit/mL isocitric dehydrogenase and 6 mM isocitric acid in 100 mM potassium phosphate buffer, pH 7.4. After incubation times of 0, 3, 6, 9, 15 and 30 minutes at 37° C., 300 μL of cold acetonitrile (including internal standard) was added to 100 μL incubation mixture to terminate the reaction. Following precipitation and centrifugation, the amount of compound remaining in the samples were determined by LC-MS/MS. Controls of no NADPH regenerating system at zero and 30 minutes were also prepared and analyzed.

| SMILES | IC50 (TLR9) [nM] | Clearance of Human microsome [1] [mL/min/kg] |
| --- | --- | --- |
| Cc1cc(N2Cc3ccc(OC[C@@H]4CNCCN4)cc3[C@@H](C)C2)c2cnn(C)c2n1 [Example 31, (4R)-2-(1,6-dimethylpyrazolo[3,4-b]pyridin-4-yl)-4-methyl-6-[[(2S)-piperazin-2-yl]methoxy]-3,4-dihydro-1H-isoquinoline] | 105 | 7.9 |
| C[C@H]1CN(c2ccnc3c2cnn3C)Cc2ccc(OCCN3CCNCC3)cc21 [Example 40, (4R)-4-methyl-2-(1-methylpyrazolo[3,4-b]pyridin-4-yl)-6-(2-piperazin-1-ylethoxy)-3,4-dihydro-1H-isoquinoline] | 326 | 6.2 |
| CO[C@H]1CN(c2cc3c(cn2)CN(c2cc(C)nc4c2cnn4C)C[C@@H]3C)CC[C@@H]1N [Example 73, (3S,4S)-3-methoxy-1-[(5R)-7-(1,6-dimethylpyrazolo[3,4-b]pyridin-4-yl)-5-methyl-6,8-dihydro-5H-2,7-naphthyridin-3-yl]piperidin-4-amine] | 115 | 6.3 |
| CCn1ncc2c(N3Cc4ccc(N5CCNCC5)cc4[C@@H](C)C3)ccnc21 [Example 22, (4R)-2-(1-ethylpyrazolo[3,4-b]pyridin-4-yl)-4-methyl-6-piperazin-1-yl-3,4-dihydro-1H-isoquinoline] | 412 | 6.2 |
| Cc1cc(N2Cc3cnc(N4CC5(CNCCO5)C4)cc3[C@@H](C)C2)c2cnn(C)c2n1 [Example 79, 2-[(5R)-7-(1,6-dimethylpyrazolo[3,4-b]pyridin-4-yl)-5-methyl-6,8-dihydro-5H-2,7-naphthyridin-3-yl]-5-oxa-2,8-diazaspiro[3.5]nonane] | 131 | 8.0 |
| C[C@H]1CN(c2ccnc3c2cnn3C)Cc2ccc(OC3CN(C4CCNCC4)C3)cc21 [Example 41, (4R)-4-methyl-2-(1-methylpyrazolo[3,4-b]pyridin-4-yl)-6-[1-(4-piperidyl)azetidin-3-yl]oxy-3,4-dihydro-1H-isoquinoline] | 47 | 6.2 |
| Cc1cc(N2Cc3ccc(N4CCNCC4)nc3[C@@H](C)C2)c2cnn(C)c2n1 [Example 66, (8S)-6-(1,6-dimethylpyrazolo[3,4-b]pyridin-4-yl)-8-methyl-2-piperazin-1-yl-7,8-dihydro-5H-1,6-naphthyridine] | 132 | 9.8 |
| Cc1cc(N2Cc3ccc(OC4CCNCC4)nc3[C@@H](C)C2)c2cnn(C)c2n1 [Example 64, (8S)-6-(1,6-dimethylpyrazolo[3,4-b]pyridin-4-yl)-8-methyl-2-(4-piperidyloxy)-7,8-dihydro-5H-1,6-naphthyridine] | 249 | 7.0 |
| C[C@H]1CN(c2ccnc3c2cnn3C)Cc2ccc(N3CCN(c4cc5c(cn4)CCNC5)CC3)cc21 [Example 9, 7-[4-[(4R)-4-methyl-2-(1-methylpyrazolo[3,4-b]pyridin-4-yl)-3,4-dihydro-1H-isoquinolin-6-yl]piperazin-1-yl]-1,2,3,4-tetrahydro-2,6-naphthyridine] | 117 | 9.9 |
| C[C@H]1CN(c2ccnc3c2cnn3C)Cc2ccc(N3CCN(Cc4cn(C)cn4)CC3)cc21 [Example 37, (4R)-4-methyl-6-[4-[(1-methylimidazol-4-yl)methyl]piperazin-1-yl]-2-(1-methylpyrazolo[3,4-b]pyridin-4-yl)-3,4-dihydro-1H-isoquinoline] | 222 | 8.2 |
| Cc1cc(N2Cc3ccc(N4CCOC5(CNC5)C4)nc3[C@@H](C)C2)c2cnn(C)c2n1 [Example 70, 8-[(8S)-6-(1,6-dimethylpyrazolo[3,4-b]pyridin-4-yl)-8-methyl-7,8-dihydro-5H-1,6-naphthyridin-2-yl]-5-oxa-2,8-diazaspiro[3.5]nonane] | 300 | 8.1 |
| C[C@H]1CN(c2ccnc3c2cnn3C)Cc2ccc(N3CC4(CCNC4)CC3=O)cc21 (stereo partly drawn) [Example 52, 2-[(4R)-4-methyl-2-(1-methylpyrazolo[3,4-b]pyridin-4-yl)-3,4-dihydro-1H-isoquinolin-6-yl]-2,7-diazaspiro[4.4]nonan-3-one] | 117 | 6.2 |
| Cc1cc(N2Cc3cnc(N4CC[C@@H](N)[C@H](F)C4)cc3[C@@H](C)C2)c2cnn(C)c2n1 [Example 80, (3R,4R)-3-fluoro-1-[(5R)-7-(1,6-dimethylpyrazolo[3,4-b]pyridin-4-yl)-5-methyl-6,8-dihydro-5H-2,7-naphthyridin-3-yl]piperidin-4-amine] | 73 | 6.2 |
| C[C@H]1CN(c2ccnc3c2cnn3C)Cc2ccc(N3CC4(CCNCC4)CC3=O)cc21 [Example 16, 2-[(4R)-4-methyl-2-(1-methylpyrazolo[3,4-b]pyridin-4-yl)-3,4-dihydro-1H-isoquinolin-6-yl]-2,8-diazaspiro[4.5]decan-3-one] | 63 | 8.2 |
| Cc1cc(N2Cc3ccc(N4CCC(C)(N)CC4)nc3[C@@H](C)C2)c2cnn(C)c2n1 [Example 59, 4-methyl-1-[(8S)-6-(1,6-dimethylpyrazolo[3,4-b]pyridin-4-yl)-8-methyl-7,8-dihydro-5H-1,6-naphthyridin-2-yl]piperidin-4-amine] | 121 | 9.4 |
| C[C@H]1CN(c2ccnc3c2cnn3C)Cc2ccc(N3C[C@@]4(CCNC4)CC3=O)cc21 (single isomer, unassigned) [Example 53] | 210 | 7.0 |
| Cc1cc(N2Cc3ccc(N4CCNCC4)nc3[C@H](C)C2)c2cnn(C)c2n1 [Example 72, (8R)-6-(1,6-dimethylpyrazolo[3,4-b]pyridin-4-yl)-8-methyl-2-piperazin-1-yl-7,8-dihydro-5H-1,6-naphthyridine] | 113 | 7.3 |
| CC1CN(c2ccc3c(c2)[C@@H](C)CN(c2ccnc4c2cnn4C)C3)CCN1 (stereo partly drawn) [Example 15, (4R)-4-methyl-6-(3-methylpiperazin-1-yl)-2-(1-methylpyrazolo[3,4-b]pyridin-4-yl)-3,4-dihydro-1H-isoquinoline] | 309 | 6.2 |
